Laboratory results as given in publication PMC7307922 (Journal of Medicinal Chemistry, 2020).
≈ marks a conversion by molar mass, not a printed value. Where “and” joins values, the source holds several entries; their conditions need not be identical. Equal entries are not always repeated. Where two headings read alike, the source gives them in different places.

What was measured:
hFFA3 [1] = target: T1, hFFA3 (Homo sapiens, UniProt O14843); assay: biochemical
T1 sequence (O14843 1-346): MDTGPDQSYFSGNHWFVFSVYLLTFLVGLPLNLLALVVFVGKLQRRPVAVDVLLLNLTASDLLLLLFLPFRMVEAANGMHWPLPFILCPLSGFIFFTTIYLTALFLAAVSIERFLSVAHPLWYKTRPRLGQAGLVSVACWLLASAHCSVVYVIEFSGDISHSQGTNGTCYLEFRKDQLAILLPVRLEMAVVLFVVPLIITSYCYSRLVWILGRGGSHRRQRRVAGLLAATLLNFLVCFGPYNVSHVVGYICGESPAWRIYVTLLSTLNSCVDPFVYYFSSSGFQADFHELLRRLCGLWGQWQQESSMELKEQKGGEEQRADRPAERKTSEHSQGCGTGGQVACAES
Description: (§1) The ligands were initially screened in a human FFA3-dependent [^35S]GTPγS binding assay as this assay reflects receptor-mediated activation of Gi/o proteins and is known to generally correlate well with ligand affinity.[30] Analogues of particular interest were tested further in a cAMP inhibition assay as this is an important downstream effect of Gi-activation. […] It is furthermore performed in whole cells, is more downstream, includes G protein signal amplification, and therefore better reflects a more natural ligand–receptor response.
Membranes were isolated from Flp-In T-REx HEK293 cells treated with 100 ng/mL doxycycline to induce receptor expression. Cells were washed with ice-cold phosphate-buffered saline and removed from dishes by scraping before being centrifuged for 5 min at 4 °C, 3000 rpm. Pellets were resuspended in TE buffer (75 mM Tris–HCl, 5 mM EDTA; pH 7.5) with the addition of a protease inhibitor mixture (Roche Applied Science, West Sussex, UK). This was then homogenized with a 5 mL hand-held homogenizer and subsequently centrifuged at 1500 rpm for 5 min at 4 °C, from which the supernatant was collected and further centrifuged at 50 000 rpm for 30 min at 4 °C. The resulting pellet was resuspended in TE buffer, and the protein content was measured using a BCA protein assay kit (Pierce, Fisher Scientific, Loughborough, UK).
Reactions were initiated with the addition of [^35S]GTPγS at 50 nCi per tube; reactions were terminated after 1 h of incubation at 25 °C by rapid filtration through GF/C glass filters using a 24-well Brandel cell harvester (Alpha Biotech, Glasgow, UK). Unbound radioligand was removed from filters by washing three times with ice-cold wash buffer (50 mM Tris–HCl, pH 7.4, and 10 mM MgCl2), and [^35S]GTPγS binding was determined by liquid scintillation spectrometry.

hFFA3 [2] = target: T1, hFFA3; assay: cell-based; settings: for Emax: HEK293, read-out: cAMP Emax; for cAMP pEC50: hFFA3, compound alone, mean of ≥3 independent experiments ± standard error
Description: as §1
HEK293 Flp-In T-Rex cells stably transfected with FFA3-eYFP receptors were incubated overnight with doxycycline to induce expression, then harvested, and cryopreserved. On the day of each experiment, cells were thawed and resuspended in stimulation buffer. Assays were carried out using a 384-well plate format with 3000 cells/well using the CisBio cAMP GS dynamic kit as per manufacturer’s protocol. Compounds were tested for the ability to inhibit 0.3 μM forskolin-induced cAMP production after co-incubation for 1 h. Reactions were measured using a PHERAstar FS plate reader (BMGLabtech, Aylesbury, UK).

[3] = Kinetic aqueous solubility in PBS pH 7.4; assay type: physicochemical; settings: for solubility: pH 7.4, read-out: Aq. solub.
Description: (§2) Solubility and log D7.4 measurements were performed in accordance to the previously published procedures.[35]

log D7.4 measurement = assay type: physicochemical; settings: pH 7.4; read-out: logD7.4
Description: as §2

[4] = Stability toward mouse liver microsomes; settings: remaining after 40 min incubation with MLMs
Description: The study was performed by Bienta (www.bienta.net). Mouse hepatic microsomes were isolated from pooled and perfused livers of male BALB/c mice (n = 50). Isolation was performed according to the standard protocol.[36]
Microsomal incubations were carried out in 96-well plates in 5 aliquots of 40 μL each (one for each time point). Liver microsomal incubation medium comprised PBS (100 mM, pH 7.4), MgCl2 (3.3 mM), NADPH (3 mM), glucose-6-phosphate (5.3 mM), and glucose-6-phosphate dehydrogenase (0.67 units/mL) with 0.42 mg of liver microsomal protein per ml. In the control reactions, the NADPH-cofactor system was substituted with PBS. […] Each reaction was performed in duplicates. Five time points over 40 min were analyzed. The reactions were stopped by adding 12 volumes of 90% acetonitrile–water to incubation aliquots, followed by protein sedimentation by centrifuging at 5500 rpm for 3 min. […]. Supernatants were analyzed using HPLC-MS/MS on an API 3000 PE instrument.

| Structure (SMILES) | Emax (hFFA3 [2]) [%] | cAMP pEC50 (hFFA3 [2]) | solubility ([3]; phosphate buffered saline) [µM] | MLM (%) remaining [4] | logD at 24 h (log D7.4 measurement) | other results |
| --- | --- | --- | --- | --- | --- | --- |
| CC1=C(C(=O)Nc2c(F)cccc2F)C(CC(C)C)C2=C(CCCC2=O)N1 (stereo not shown) [Compound 21, N-(2,6-Difluorophenyl)-4-isobutyl-2-methyl-5-oxo-1,4,5,6,7,8-hexahydroquinoline-3-carboxamide] | 104 | 4.98 ± 0.08 | – | – | – | GTPγS pEC50 (hFFA3 [1]; hFFA3, mean of ≥3 independent experiments ± standard error): 4.67 ± 0.22; Emax (hFFA3 [1]; read-out: GTPγS Emax): 89% |
| Cc1ccccc1NC(=O)c1c(C)nc2c(c1-c1ccco1)C(=O)CCC2 [Compound 24, 4-(Furan-2-yl)-2-methyl-5-oxo-N-(o-tolyl)-5,6,7,8-tetrahydroquinoline-3-carboxamide] | – | inactive and nr^c | – | – | – | PAM pEC50 (GTPγS assay) (hFFA3 [1]; GTPγS assay, with propionate): nr^c,d |
| CCCC1C(C(=O)Nc2ccccc2C)=C(C)NC2=C1C(=O)CCC2 (stereo not shown) [Compound 35, 2-Methyl-5-oxo-4-propyl-N-(o-tolyl)-1,4,5,6,7,8-hexahydroquinoline-3-carboxamide] | 101 | 5.92 ± 0.01 | 199 (≈ 67.4 µg/mL) | 23% | – | PAM pEC50 (hFFA3 [2]; cAMP assay in the presence of 1 μM propionate): 6.16 ± 0.10; logD (log D7.4 measurement): 2.64 |
| CC1=C(C(=O)Nc2cc(Cl)ccc2Cl)C(c2nccs2)C2=C(CCCC2=O)N1 (stereo not shown) [Compound 47, N-(2,5-Dichlorophenyl)-2-methyl-5-oxo-4-(thiazol-2-yl)-1,4,5,6,7,8-hexahydroquinoline-3-carboxamide] | – | – | 2 (≈ 0.869 µg/mL) | 2% | 3.39 | solubility [3]: 1 µM (≈ 0.434 µg/mL) |
| CC1=C(C(=O)Nc2cc(Cl)ccc2Cl)C(c2cncs2)C2=C(CCCC2=O)N1 (stereo not shown) [Compound 48, N-(2,5-Dichlorophenyl)-2-methyl-5-oxo-4-(thiazol-5-yl)-1,4,5,6,7,8-hexahydroquinoline-3-carboxamide] | 97 | 5.75 ± 0.03 | 1 (≈ 0.434 µg/mL) | – | 3.23 | – |
| CC1=C(C(=O)Nc2cc(Cl)ccc2Cl)C(c2cscn2)C2=C(CCCC2=O)N1 (stereo not shown) [Compound 49, N-(2,5-Dichlorophenyl)-2-methyl-5-oxo-4-(thiazol-4-yl)-1,4,5,6,7,8-hexahydroquinoline-3-carboxamide] | 95 | 5.71 ± 0.08 | < 1 | – | 3.28 | – |
| CC1=C(C(=O)Nc2cc(Cl)ccc2Cl)C(c2cocn2)C2=C(CCCC2=O)N1 (stereo not shown) [Compound 50, N-(2,5-Dichlorophenyl)-2-methyl-4-(oxazol-4-yl)-5-oxo-1,4,5,6,7,8-hexahydroquinoline-3-carboxamide] | 97 | 5.78 ± 0.03 | 62 (≈ 25.9 µg/mL) | – | 2.84 | increase of solubility relative to 16 ([3]; kinetic solubility): > 10 fold |
| CC1=C(C(=O)Nc2cc(Cl)ccc2Cl)C(c2ncco2)C2=C(CCCC2=O)N1 (stereo not shown) [Compound 51, N-(2,5-Dichlorophenyl)-2-methyl-4-(oxazol-2-yl)-5-oxo-1,4,5,6,7,8-hexahydroquinoline-3-carboxamide] | 95 | 6.72 ± 0.05 | 1 (≈ 0.418 µg/mL) | 12% | 2.59 | – |
| CCCC1C(C(=O)Nc2ccccc2Cl)=C(C)NC2=C1C(=O)CCC2 (stereo not shown) [Compound 58, N-(2-Chlorophenyl)-2-methyl-5-oxo-4-propyl-1,4,5,6,7,8-hexahydroquinoline-3-carboxamide] | 105 | 6.06 ± 0.05 | 169 (≈ 60.6 µg/mL) | – | 3.22 | increase of solubility compared to 57 ([3]; kinetic solubility): 4–5 fold |
| CCCC1C(C(=O)Nc2cccc(Cl)c2)=C(C)NC2=C1C(=O)CCC2 (stereo not shown) [Compound 59, N-(3-Chlorophenyl)-2-methyl-5-oxo-4-propyl-1,4,5,6,7,8-hexahydroquinoline-3-carboxamide] | 105 | 5.97 ± 0.05 | 137 (≈ 49.2 µg/mL) | – | 3.77 | increase of solubility compared to 57 ([3]; kinetic solubility): 4–5 fold |
| CCCC1C(C(=O)Nc2cc(C)ccc2Cl)=C(C)NC2=C1C(=O)CCC2 (stereo not shown) [Compound 60, N-(2-Chloro-5-methylphenyl)-2-methyl-5-oxo-4-propyl-1,4,5,6,7,8-hexahydroquinoline-3-carboxamide] | 103 | 6.19 ± 0.10 | 145 (≈ 54.1 µg/mL) | – | 3.57 | – |
| CCCC1C(C(=O)Nc2cc(OC)ccc2Cl)=C(C)NC2=C1C(=O)CCC2 (stereo not shown) [Compound 61, N-(2-Chloro-5-methoxyphenyl)-2-methyl-5-oxo-4-propyl-1,4,5,6,7,8-hexahydroquinoline-3-carboxamide] | 96 | 5.96 ± 0.08 | 157 (≈ 61.1 µg/mL) | – | 3.07 | – |
| CC1=C(C(=O)Nc2cc(Cl)ccc2Cl)C(C2CC2)C2=C(CCCC2=O)N1 (stereo not shown) [Compound 62, 4-Cyclopropyl-N-(2,5-dichlorophenyl)-2-methyl-5-oxo-1,4,5,6,7,8-hexahydroquinoline-3-carboxamide] | – | – | 5 (≈ 1.96 µg/mL) | 1−2% and 1% | 3.73 | – |
